We go through 1 compound from publication PMC7156724, “Potent BRD4 inhibitor suppresses cancer cell-macrophage interaction” (Nature Communications, 2020).

Values joined by “and” are separate entries in the source; they are usually repeats but may differ in a detail not shown here. Equal values may be shown once.

Data set [1] deals with TAMs. Nature of the data set: 3D Matrigel culture of TAMs, direct treatment. The class given is cell-based, mouse. Here is the method:
CD45^+CD11b^+F4/80^+ TAMs were isolated from peritoneal metastasis of A2780 tumor-bearing mice and cultured in RPMI-1640 supplemented with 10% FBS, 1% penicillin/streptomycin, and 0–50 ng/ml CSF1 (R&D Systems) as indicated according to standard protocols. In the cancer cell-macrophage co-culture experiments, CSF1 was not added. In the transwell (Corning, pore size, 0.4 μm) co-culture experiments, tumor cells were placed into the upper chamber, and TAMs were seeded into the lower chamber.
Single clone spheroids were generated by culturing A2780, ES-2, H526 and MDA-MB231 cells for 16 h as a hanging drop over a humidified plate in a CO2 incubator in their corresponding complete media. […] The relative spheroid sizes were measured with ImageJ version 1.52s using the 15 representative spheroids. […]
with anti-CD45, CD11b and CD206 followed by FACS analysis. Shown are representative FACS plots (c) and quantification of the percentage of CD11b+CD206+ cells (d). Data are presented as mean ± SEM from 5 different mice. p values were calculated using two-tailed, unpaired t tests. **, p<0.01; ***, p<0.001. […] Quantification of spheroid volumes (f). Data are presented as mean ± SEM from 15 independent experiments. p values were calculated using two-tailed, unpaired t tests. **, p<0.01. […]

A short description of data set [2]: Metabolic stability assay, rat liver microsomes. The settings on record: for Remaining in rat liver microsomes (Sup Fig.6b): in % (unit assumed). The protocol: 7. Metabolic stability assay. The metabolic profile of NHWD-870 was determined using mouse, rat, dog, monkey, and human liver microsomes using the protocols […]
No. Compound ID Exat Mass Stock Conc.
1) 100 mM potassium phosphate buffer, PH7.4; 2) 10mM MgCI2
1) Intermediate solution: Dilute 5 μL of compound or control from stock solution (10 mM) with 45 uL DMSO,then mixed with 450 μL 1:1 Methanol/Water (Conc.: 10 0 […]
2) Working solution: Dilute 50 μL from intermediate solution with 450 μL 100 mM potassium phosphate buffer (Conc.: 10 μM, 4.5%MeOH)
(3) NADPH regenerating system (final Isocitric dehydrogenase conc.= 1 unit/mL at […]
1) β-Nicotinamide adenine dinucleotide phosphate, Vendor: sigma Cat. No. N0505
2) Isocitric acid, Vendor: Sigma Cat. No. I1252
3) Isocitric dehydrogenase, Vendor: sigma Cat. No. I2002
(4) Liver microsome solution preparation (final concentration o f 0.5 mg protein/mL) […]
Cold ACN including 100 ng/mL Tolbutamide and 100 ng/mL Labetalol as internal […]
1) Add 10 μL compound or control working solution/well to all plates (T0, T5, T10, T20, T30, T60, NCF60) except matrix blank.
2) Dispense 680 μL/well microsome solution to 96-well plate as reserv oir according to […]
plate map. Then add 80 μL/well to every plate by Apricot, incubate the mixture of microsome solution and compound at 37℃ for about 10 min.
3) Add 10 μL 100 mM potassium phosphate buffer/well to NCF60, incubate at 37℃, […]
4) After pre-warming, dispense 90 μL/well NADPH regenerating system to 96-well plate as reservoir according to the plate map. Then add 10 μL/well to every plate by Apricot to start reaction.
5) Incubate at 37℃, start timer 2.
6) Add 300 (μL/well) stop solution (cold in 4℃, including 100 ng/mL Tolbutamide and 100 ng/mL Labetalol) to terminate the reaction.
7) The sampling plates are shaked for approx 10 min.
8) Samples are centrifuged at 4000 rpm for 20 min under 4℃.
9) While centrifuging, load 8×new 96-well plate with 300 μL HPLC water, then transfer 100 μL supernatant, mixed for LC/MS/MS.
Use equation of first order kinetics to calculate t1/2 and Clin t(mic): […]
Equation of first order kinetics: […]

Data set [3] has as its system A2780 cells. Nature of the data set: Clonogenic (colony formation) assay, A2780. The settings on record: A2780, 250 nM, 5 days. It is filed as cell-based, human. Here is the method:
Fig. 2 NHWD-870 inhibited BRD4 phosphorylation and c-MYC expression, and suppressed cell growth. a Representative western blot analysis of p-BRD4 (s484/488), BRD4, c-MYC, and GAPDH after treatment of MDA-MB231, SUM159, A2780 ES-2, and H526 cells with JQ-1 or NHWD-870 at the indicated concentrations for 24 h. GAPDH served as the loading control. Selected from three independent experiments. b MTT assays of H526, A2780, ES-2, and MDA-MB231 cells treated with JQ-1 or NHWD-870 at the indicated concentrations for 5 days. Data are presented as mean ± SEM from three independent experiments. c, d Clonogenic assays of H526, A2780, ES-2 and MDA-MB231 cells treated with 250 nM JQ-1 or NHWD-870 for 5 days. Shown are representative images (c) and quantification of colonies (d). […] Shown are representative images (e) and quantification of relative colony sizes (f). Scale bar, 50 μm. Data are presented as mean ± SEM from five independent experiments. p values were calculated using two-tailed, unpaired t tests in this figure. **p < 0.01; ***p < 0.001. Source data are provided as a Source Data file. […]
5. Colony formation assay. Cells were seeded in 6-well plates at 3,000 cells/well […]
every week. […] Colony numbers were calculated with imageJ version

Usually CLint scaled stands for a measure of how fast metabolising enzymes remove a compound, apart from limits set by blood flow. Read a high CLint scaled as rapid turnover. As usually defined, the half-life is the time in which the quantity being followed falls by half. High values mean slow decline, low ones rapid decline. Usually microsomal CLint stands for the capacity of the preparation to metabolise the compound, expressed as a volume cleared per time. High values mean rapid turnover, low ones slow turnover. Turning to `Cc1nnn(C)c1-c1cnc2c3c4cnn(C)c4ccc3n([C@H](c3ccccc3)C3CCOCC3)c2c1` [NHWD-870], the “fold inhibition of colony size of macrophages” value in data set [1] is given as less than 2 fold. In addition, the “decrease of the ability of TAMs to form colonies in a 3D culture system” value in data set [1] (100 nM) is given as less than 50%. The “Remaining (T=60min)” value in data set [2] (rat liver microsomes) came to 22.3%. For the same compound, the “Remaining (*NCF=60min)” value in data set [2] (rat liver microsomes, no cofactor) turned out to be 76.0%. The compound also yielded a CLint scaled at 1 µM in data set [2] (rat, liver microsomes, pH 7.4) of 92 mL/min/kg. Further, the half-life at 1 µM in data set [2] (rat, liver microsomes, pH 7.4) was 27.1 min. The intrinsic metabolic clearance (microsomal CLint) at 1 µM in data set [2] (rat, microsomes, pH 7.4) amounted to 51.1 µL/min/mg. In addition, the “Remaining in rat liver microsomes (Sup Fig.6b)” value is 100 in data set [2] (time 0); 91.753 in data set [2] (time 5); 75.9 in data set [2] (time 10); 52.356 in data set [2] (time 20); 42.131 in data set [2] (time 30); 22.275 in data set [2] (time 60). In addition, the “Clone Number (clonogenic assay)” value in data set [3] was 378 and 355 and 313 and 209 and 273.
